Entries after “also recorded” stand apart in the source; their conditions may differ.
Key:
[1] = tested on: SARS-CoV-2 (isolate USA WA1/2020); assay: microbe, parasite or virus in culture; assay type: cell-based; conditions: Severe acute respiratory syndrome coronavirus 2, Calu-3
[2] = biological target: SARS-CoV-2 spike RBD: hACE2 (Severe acute respiratory syndrome coronavirus 2, UniProt P0DTC2); assay type: biochemical
[3] = biological target: SARS-CoV-2 spike RBD (331–528 amino acids) (Severe acute respiratory syndrome coronavirus 2, UniProt P0DTC2); assay: biochemical; assay type: binding
SARS-CoV-2 [4] = conditions: 10 μM, after 48 h; cited from earlier work
SARS-CoV-2 [5] = assay type: cell-based
SARS-CoV-2 [6] = conditions: cited from earlier work
in vitro = conditions: human
[7] = tested on: spike protein–ACE2 interaction; conditions: not tested against virally infected cells; cited from earlier work
SARS-CoV-2 [8] = conditions: Vero cells; cited from earlier work
ACE2 = conditions: read-out: IC50 exopeptidase activity; cited from earlier work
SARS-CoV-2 [9] = conditions: cited from earlier work; remark: listed apart in the source

CCC(CC)COC(=O)[C@H](C)N[P@](=O)(OC[C@H]1O[C@@](C#N)(c2ccc3c(N)ncnn23)[C@H](O)[C@@H]1O)Oc1ccccc1 [Remdesivir]
EC50 [1]: 0.08 µM

CC(C)NCC(O)COc1cccc2[nH]ccc12 (stereo not drawn) [pindolol, Pindolol]
disruption of the interaction between the RBD and ACE2 [2]: none of the compounds tested were able to disrupt the interaction | Kd [3]: 0.57 ± 0.144 µM

CC(C)NCC(O)COc1ccc(CC(N)=O)cc1 (stereo not drawn) [atenolol]
inhibition of SARS-CoV-2-induced cytotoxicity of Caco-2 cells (SARS-CoV-2 [4]): 25.84% | SARS-CoV-2 adsorption to Vero E6 cells (SARS-CoV-2 [5]): statistically decreased SARS-CoV-2 adsorption

CCN(CC)CCCC(C)Nc1c2ccc(Cl)cc2nc2ccc(OC)cc12 (stereo not drawn) [quinacrine]
activity in A549-ACE2 cells (SARS-CoV-2 [6]): sub-micromolar

CCCCC/C=C\C/C=C\CCCCCCCC(=O)O [linoleic acid]
disruption of the interaction between the RBD and ACE2 [2]: not able to disrupt the interaction

CC(C)(C)NCC(O)COc1cccc2c1CCC(=O)N2 (stereo not drawn) [carteolol]
disruption of the interaction between the RBD and ACE2 [2]: none of the compounds tested were able to disrupt the interaction | Kd [3]: 0.459 ± 0.111 µM

COc1ccccc1OCCNCC(O)COc1cccc2[nH]c3ccccc3c12 (stereo not drawn) [carvedilol]
CC50 (in vitro): 18.1 µM | disruption of the interaction between the RBD and ACE2 [2]: none of the compounds tested were able to disrupt the interaction | EC50 [1]: 7.57 µM | Kd [3]: 0.364 ± 0.022 µM | inhibition of SARS-CoV-2-induced cytotoxicity of Caco-2 cells (SARS-CoV-2 [4]): did not show activity | SARS-CoV-2 adsorption to Vero E6 cells (SARS-CoV-2 [5]): statistically decreased SARS-CoV-2 adsorption; also recorded: highest reduction on SARS-CoV-2 adsorption

O=c1c(O)c(-c2ccc(O)c(O)c2)oc2cc(O)cc(O)c12 [Quercetin]
IC50 [7]: 7 µM

Oc1c(I)cc(Cl)c2cccnc12 [cliquinol]
EC50 (SARS-CoV-2 [8]): 12.6 µM | IC50 (ACE2): 5.36 µM

CCN(CC)CCOc1ccc2c(c1)C(=O)c1cc(OCCN(CC)CC)ccc1-2 [tilorone]
activity in A549-ACE2 cells (SARS-CoV-2 [6]): sub-micromolar

CC(C)NCC(O)COc1ccc(COCCOC(C)C)cc1 (racemic) [bisoprolol, (±)-Bisoprolol hemifumarate]
disruption of the interaction between the RBD and ACE2 [2]: none of the compounds tested were able to disrupt the interaction | binding to the RBD spike in MST [3]: did not bind | SARS-CoV-2 adsorption to Vero E6 cells (SARS-CoV-2 [5]): statistically decreased SARS-CoV-2 adsorption

COc1ccc2nc3cc(Cl)ccc3c(Nc3cc(CN4CCCC4)c(O)c(CN4CCCC4)c3)c2n1 [pyronaridine]
efficacy in a mouse model infected with SARS-CoV-2 (SARS-CoV-2 [9]): demonstrated efficacy | activity in A549-ACE2 cells (SARS-CoV-2 [6]): sub-micromolar

Source: paper PMC9380819 (ACS Omega, 2022)
